According to patent US7202048B2, “Onset of force development as a marker of thrombin generation” (Hemodyne, Inc., priority 2002, dated 2007):
“Also recorded” adds a separate entry of the source.

Tests used:
Assay type in all cases: cell-based, human
normal whole blood [1] = assay: Platelet contractile force (PCF) in batroxobin/calcium-clotted whole blood (Hemodyne); details: for PCF: 1200 seconds
Experimental: (§1) The patients and normal controls in this study were enrolled under a series of protocols approved by the Institutional Review Board for Human Studies of Virginia Commonwealth University. Written consent was obtained from each volunteer. Blood was obtained via aseptic venipuncture into evacuated tubes containing 3.2% sodium citrate.
(§2) Whole blood clot formation was induced by the addition of CaCl2 or a combination of CaCl2 and batroxobin (0.21 μg/ml). Platelet contractile force development and clot elastic modulus were measured for 1200 seconds.
The Hemodyne® hemostasis analyzer (Hemodyne, Inc., Richmond, Va., USA) measures forces generated by platelets within a clot formed between a thermostated cup and parallel upper plate (7,8). Before clotting, the upper plate is centered above the cup and lowered into the sample. As the clot forms, it attaches to the inner walls of the cup and the bottom of the upper plate. The entire sample volume is contained between the upper and lower surfaces. Once fibrin is formed, platelets within the network pull fibrin strands inward transmitting force through the network to the surfaces to which the clot is adherent. Force measurement is accomplished utilizing a transducer coupled to the upper plate. As platelets contract, the transducer produces an electrical output proportional to the amount of force generated. The transducer output is continuously recorded.

normal whole blood [2] = assay: Thrombin generation time (TGT), onset of PCF after calcium and batroxobin
Experimental: FIG. 1. Determination of the thrombin generation time (TGT) from the kinetics of platelet contractile force (PCF) development after addition of calcium (10 mM final) and batroxobin (0.21 μg/ml final) to 700 μl of citrated (3.2%) whole blood at time zero. The TGT is taken to be the initial inflection point of the PCF curve, ie. the moment the PCF first begins to increase.
as §1, §2
Citrated blood clotted with batroxobin, or other similar enzymes (e.g., reptilase), and calcium develops PCF. […] During this time period, thrombin is generated by re-calcification. Since the fibrin network is in place prior to the generation of thrombin, PCF becomes apparent as soon as a small amount of thrombin is generated (FIG. 1). Thus, the inflection or take off point in the PCF curve serves as a marker of thrombin generation in the batroxobin mediated assay. For ease in identification, the first derivative of the curve in FIG. 1 will provide a sharp break where the curve increases (TGT being at the spike). The instrumentation used for the analysis, such as that shown in FIG. 9, can provide the output of FIG. 1 or the first derivative for identification of TGT, or, alternatively, the output could simply be an indicator light array indicating when the TGT is in the normal range or outside of the normal range.
We designate the time between calcium addition and initial PCF development the Thrombin Generation Time (TGT). Similar results can be obtained without using a snake venom enzyme if one simply recalcifies the plasma sample. Since thrombin generation must be followed by fibrin clot formation before PCF can begin to occur in the recalcification assay, the lag phase tends to be longer and more variable. Similar assays termed reptilase clot retractions were shown in the early seventies to be sensitive to a variety of antiplatelet and anticoagulant agents (10).

normal whole blood [3] = assay: Clot elastic modulus (CEM) in batroxobin/calcium-clotted whole blood (Hemodyne); details: 1200 seconds
Experimental: as §1, §2
Clot elastic modulus was measured by applying a downward force of known magnitude to the upper plate of the Hemodyne apparatus (9). The amount of downward displacement caused by the force was measured. The ratio of downward force (stress) to downward displacement (strain) was used to calculate the elastic modulus. Stress equals the force applied divided by the area of application and strain is the degree of shape change induced by the applied force.

[4] = bivalirudin 3.5 μg/ml in normal whole blood
[5] = 0.165 U/ml added to normal whole blood
[6] = 0.330 U/ml added to normal whole blood
[7] = 0.660 U/ml added to normal whole blood
[8] = 1.320 U/ml added to normal whole blood
[9] = increasing concentrations in normal whole blood

| Substance | Effect on PCF (normal whole blood [1]; [4]) | Effect on TGT (normal whole blood [2]; [4]) | PCF (normal whole blood [1]; [5]) [Kdynes] | PCF (normal whole blood [1]; [6]) [Kdynes] | PCF (normal whole blood [1]; [7]) [Kdynes] | PCF (normal whole blood [1]; [8]) [Kdynes] | Effect on PCF (normal whole blood [1]; [9]) | CEM (normal whole blood [3]; [5]) [Kdynes/cm^2] | CEM (normal whole blood [3]; [6]) [Kdynes/cm^2] | CEM (normal whole blood [3]; [7]) [Kdynes/cm^2] | CEM (normal whole blood [3]; [8]) [Kdynes/cm^2] | TGT (normal whole blood [2]; [5]) [s] | TGT (normal whole blood [2]; [6]) [s] | TGT (normal whole blood [2]; [7]) [s] | TGT (normal whole blood [2]; [8]) [s] | Effect on TGT (normal whole blood [2]; [9]) |
| --- | --- | --- | --- | --- | --- | --- | --- | --- | --- | --- | --- | --- | --- | --- | --- | --- |
| bivalirudin | lower; also recorded: decreases | prolongs |  |  |  |  |  |  |  |  |  |  |  |  |  |  |
| Hirudin |  |  | 4.01 | 3.57 | 1.80 | 0.70 | declines; also recorded: reduction | 12.34 | 11.21 | 6.50 | 0.73 | 420 | 480 | 560 | >1200 | prolongs; also recorded: dose depend prolongation |
